Source: ChEMBL document CHEMBL5465560, “Selectivity Literature for EUbOPEN Chemogenomic Library” (2024)

Tests used:
[1] = target: Serine/threonine-protein kinase B-raf (Homo sapiens) (UniProt P15056); assay: (§1) Selectivity interaction (KinomeScan (DiscoverX)) EUB0001049a BRAF; settings: at 1 µM
[2] = tested on: Serine/threonine-protein kinase B-raf (Homo sapiens), P15056 [V600E]; assay: as §1; settings: at 1 µM
[3] = target: Serine/threonine-protein kinase MARK2 (Homo sapiens) (UniProt Q7KZI7); assay: Selectivity interaction (Kinase panel (Invitrogen)) EUB0000639a MARK2; settings: at 200 nM
[4] = target: Serine/threonine-protein kinase SMG1 (Homo sapiens) (UniProt Q96Q15); assay: Selectivity interaction (ActivX KiNativ screen (kinase selectivity in THP-1 cell lysates)) EUB0000639a SMG1; assay type: subcellular; settings: lysate, at 0.04 µM
[5] = target: Serine/threonine-protein kinase WNK2 (Homo sapiens) (UniProt Q9Y3S1); assay: Selectivity interaction (ActivX KiNativ screen (kinase selectivity in THP-1 cell lysates)) EUB0000639a WNK2; assay type: subcellular; settings: lysate, at 0.2 µM
Sequence of Serine/threonine-protein kinase WNK2 (Homo sapiens) (Q9Y3S1 whole entry, the tested form may be a part): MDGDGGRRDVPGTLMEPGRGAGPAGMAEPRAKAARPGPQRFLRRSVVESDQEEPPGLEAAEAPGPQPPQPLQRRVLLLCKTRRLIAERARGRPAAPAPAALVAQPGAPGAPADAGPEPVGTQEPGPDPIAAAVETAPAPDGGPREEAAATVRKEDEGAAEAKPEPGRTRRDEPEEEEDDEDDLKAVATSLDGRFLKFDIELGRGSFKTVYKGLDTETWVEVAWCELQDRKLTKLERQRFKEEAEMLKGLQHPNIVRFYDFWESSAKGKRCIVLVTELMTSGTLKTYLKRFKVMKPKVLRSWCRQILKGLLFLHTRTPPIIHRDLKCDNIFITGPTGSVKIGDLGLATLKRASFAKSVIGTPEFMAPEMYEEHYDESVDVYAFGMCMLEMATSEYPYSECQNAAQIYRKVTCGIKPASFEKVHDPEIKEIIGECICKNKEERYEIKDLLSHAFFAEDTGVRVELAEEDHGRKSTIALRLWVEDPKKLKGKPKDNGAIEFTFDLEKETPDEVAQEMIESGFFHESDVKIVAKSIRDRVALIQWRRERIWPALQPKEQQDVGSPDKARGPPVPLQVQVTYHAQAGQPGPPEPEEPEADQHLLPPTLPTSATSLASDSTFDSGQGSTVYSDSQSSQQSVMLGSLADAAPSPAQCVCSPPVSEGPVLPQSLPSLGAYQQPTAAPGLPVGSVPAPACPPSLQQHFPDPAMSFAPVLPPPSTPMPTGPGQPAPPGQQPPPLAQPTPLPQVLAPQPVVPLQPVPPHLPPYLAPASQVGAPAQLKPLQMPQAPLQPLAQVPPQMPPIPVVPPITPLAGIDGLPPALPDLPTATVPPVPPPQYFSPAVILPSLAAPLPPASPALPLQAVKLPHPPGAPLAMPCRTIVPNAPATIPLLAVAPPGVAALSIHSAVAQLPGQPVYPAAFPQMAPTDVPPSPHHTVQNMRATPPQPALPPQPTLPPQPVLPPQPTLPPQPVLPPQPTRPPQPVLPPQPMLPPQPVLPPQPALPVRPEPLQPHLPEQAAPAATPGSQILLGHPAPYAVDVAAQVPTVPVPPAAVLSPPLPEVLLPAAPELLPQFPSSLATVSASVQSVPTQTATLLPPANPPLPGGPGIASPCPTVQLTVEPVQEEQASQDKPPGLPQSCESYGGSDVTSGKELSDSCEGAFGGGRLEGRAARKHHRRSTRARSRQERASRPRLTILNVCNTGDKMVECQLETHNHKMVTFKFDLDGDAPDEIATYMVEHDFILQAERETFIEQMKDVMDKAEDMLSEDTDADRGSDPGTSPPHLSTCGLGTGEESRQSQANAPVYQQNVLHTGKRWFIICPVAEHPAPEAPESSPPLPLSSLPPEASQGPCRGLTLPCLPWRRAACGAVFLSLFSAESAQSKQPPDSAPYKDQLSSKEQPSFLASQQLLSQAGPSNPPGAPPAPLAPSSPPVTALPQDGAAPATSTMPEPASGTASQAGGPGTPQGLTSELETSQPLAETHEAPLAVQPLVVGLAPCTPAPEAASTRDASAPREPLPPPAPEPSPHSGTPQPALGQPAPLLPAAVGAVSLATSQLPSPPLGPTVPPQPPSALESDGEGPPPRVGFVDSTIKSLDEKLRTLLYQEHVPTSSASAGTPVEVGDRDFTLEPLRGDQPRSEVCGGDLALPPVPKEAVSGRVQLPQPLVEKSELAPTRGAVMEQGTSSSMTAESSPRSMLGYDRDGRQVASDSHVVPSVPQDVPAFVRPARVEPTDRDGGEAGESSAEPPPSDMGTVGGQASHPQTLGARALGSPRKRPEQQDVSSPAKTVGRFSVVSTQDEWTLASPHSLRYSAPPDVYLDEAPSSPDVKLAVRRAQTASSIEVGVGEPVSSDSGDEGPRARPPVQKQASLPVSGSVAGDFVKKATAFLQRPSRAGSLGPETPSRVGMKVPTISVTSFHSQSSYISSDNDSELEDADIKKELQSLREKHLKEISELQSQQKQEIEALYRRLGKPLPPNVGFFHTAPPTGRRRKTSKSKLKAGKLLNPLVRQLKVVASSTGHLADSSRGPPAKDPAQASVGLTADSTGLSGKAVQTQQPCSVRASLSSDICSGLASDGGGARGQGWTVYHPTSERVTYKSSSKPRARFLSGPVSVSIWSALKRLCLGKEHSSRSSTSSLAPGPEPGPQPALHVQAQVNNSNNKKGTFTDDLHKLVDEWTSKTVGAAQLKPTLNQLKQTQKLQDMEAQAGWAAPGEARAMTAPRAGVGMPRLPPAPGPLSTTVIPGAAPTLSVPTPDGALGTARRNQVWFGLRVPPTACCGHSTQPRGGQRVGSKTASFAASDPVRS

[6] = target: T1, Ankyrin repeat and protein kinase domain-containing protein 1 (Homo sapiens) (UniProt Q8NFD2); assay: Selectivity interaction (LanthaScreen Eu Kinase Binding Assay) EUB0001632a ANKK1; settings: at 10 µM
T1 sequence (whole entry): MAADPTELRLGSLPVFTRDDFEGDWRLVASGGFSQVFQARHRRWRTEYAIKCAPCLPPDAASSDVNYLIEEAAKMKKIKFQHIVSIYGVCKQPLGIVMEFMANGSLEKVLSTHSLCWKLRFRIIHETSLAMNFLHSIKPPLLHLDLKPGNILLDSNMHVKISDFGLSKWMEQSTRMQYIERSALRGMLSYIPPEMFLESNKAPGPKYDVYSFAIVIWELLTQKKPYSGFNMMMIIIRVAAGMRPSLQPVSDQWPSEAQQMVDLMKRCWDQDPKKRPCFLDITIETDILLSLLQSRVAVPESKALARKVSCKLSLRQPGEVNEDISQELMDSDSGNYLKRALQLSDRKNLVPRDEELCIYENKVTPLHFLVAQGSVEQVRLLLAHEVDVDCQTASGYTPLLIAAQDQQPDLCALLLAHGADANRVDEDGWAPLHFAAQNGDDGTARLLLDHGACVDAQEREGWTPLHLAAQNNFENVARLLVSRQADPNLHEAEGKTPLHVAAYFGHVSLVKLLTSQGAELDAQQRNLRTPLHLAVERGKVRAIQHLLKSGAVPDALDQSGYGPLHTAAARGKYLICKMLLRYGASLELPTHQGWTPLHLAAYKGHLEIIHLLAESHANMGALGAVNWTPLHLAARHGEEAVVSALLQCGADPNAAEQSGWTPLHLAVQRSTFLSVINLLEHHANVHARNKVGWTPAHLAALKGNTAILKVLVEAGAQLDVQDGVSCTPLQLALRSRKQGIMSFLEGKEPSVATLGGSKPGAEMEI

[7] = target: Dual specificity mitogen-activated protein kinase kinase 2 (Homo sapiens) (UniProt P36507); assay: Selectivity interaction (LanthaScreen Eu Kinase Binding Assay) EUB0001632a MAP2K2; settings: at 10 µM
Sequence of Dual specificity mitogen-activated protein kinase kinase 2 (Homo sapiens) (P36507 whole entry): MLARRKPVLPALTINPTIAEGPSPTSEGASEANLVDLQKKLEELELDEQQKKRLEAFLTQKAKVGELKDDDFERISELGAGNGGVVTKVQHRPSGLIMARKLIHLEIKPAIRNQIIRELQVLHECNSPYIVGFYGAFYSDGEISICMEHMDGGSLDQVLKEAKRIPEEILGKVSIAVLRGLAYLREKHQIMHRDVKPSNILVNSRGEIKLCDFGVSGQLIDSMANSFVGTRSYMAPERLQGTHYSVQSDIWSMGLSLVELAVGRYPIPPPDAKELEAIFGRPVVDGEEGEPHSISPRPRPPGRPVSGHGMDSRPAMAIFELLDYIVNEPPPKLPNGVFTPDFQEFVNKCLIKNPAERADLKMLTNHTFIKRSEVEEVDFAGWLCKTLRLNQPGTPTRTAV

[8] = target: T2, Testis-specific serine/threonine-protein kinase 1 (Homo sapiens) (UniProt Q9BXA7); assay: Selectivity interaction (KinomeScan (DiscoverX)) EUB0000695a TSSK1B; settings: at 100 nM
T2 sequence (whole entry): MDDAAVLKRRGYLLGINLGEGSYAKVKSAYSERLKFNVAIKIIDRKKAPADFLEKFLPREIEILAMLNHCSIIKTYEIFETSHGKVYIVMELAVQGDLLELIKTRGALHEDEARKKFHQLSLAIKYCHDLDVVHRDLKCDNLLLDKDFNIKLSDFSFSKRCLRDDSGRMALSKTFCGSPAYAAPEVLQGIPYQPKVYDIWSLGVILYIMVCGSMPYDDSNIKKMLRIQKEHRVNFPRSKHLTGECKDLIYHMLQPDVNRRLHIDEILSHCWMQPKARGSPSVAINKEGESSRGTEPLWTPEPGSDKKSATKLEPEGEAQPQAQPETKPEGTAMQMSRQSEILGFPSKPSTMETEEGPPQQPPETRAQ

[9] = tested on: Tyrosine-protein kinase ABL1 (Homo sapiens), P00519 [M351T]; settings: at 10 µM
[10] = target: T3, Serine/threonine-protein kinase MAK (Homo sapiens) (UniProt P20794); assay: Selectivity interaction (KinomeScan (DiscoverX)) EUB0000229b MAK; settings: at 10 µM
T3 sequence (whole entry): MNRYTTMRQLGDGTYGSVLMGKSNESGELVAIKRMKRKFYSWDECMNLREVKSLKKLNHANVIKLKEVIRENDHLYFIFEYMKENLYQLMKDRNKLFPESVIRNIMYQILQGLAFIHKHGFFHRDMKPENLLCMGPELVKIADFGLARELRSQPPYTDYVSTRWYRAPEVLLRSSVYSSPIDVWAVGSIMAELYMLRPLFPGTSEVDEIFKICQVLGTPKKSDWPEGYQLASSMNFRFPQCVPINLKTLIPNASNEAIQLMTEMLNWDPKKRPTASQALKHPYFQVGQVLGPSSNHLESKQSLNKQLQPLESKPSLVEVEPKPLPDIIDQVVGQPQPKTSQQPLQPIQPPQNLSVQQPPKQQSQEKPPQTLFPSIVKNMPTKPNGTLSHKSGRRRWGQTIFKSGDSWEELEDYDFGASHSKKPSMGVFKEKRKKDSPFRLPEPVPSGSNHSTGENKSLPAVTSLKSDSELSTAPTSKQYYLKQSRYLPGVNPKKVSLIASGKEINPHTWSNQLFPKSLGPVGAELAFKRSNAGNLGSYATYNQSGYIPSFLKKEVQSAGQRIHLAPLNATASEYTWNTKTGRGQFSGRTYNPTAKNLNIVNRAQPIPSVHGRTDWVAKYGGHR

[11] = tested on: Epidermal growth factor receptor (Homo sapiens), P00533 [UNDEFINED MUTATION]; assay: Selectivity interaction (KinomeScan (DiscoverX)) EUB0001079a EGFR; settings: at 1 µM
Sequence of Epidermal growth factor receptor (Homo sapiens), P00533 [UNDEFINED MUTATION] (P00533 whole entry, looked up, change not shown): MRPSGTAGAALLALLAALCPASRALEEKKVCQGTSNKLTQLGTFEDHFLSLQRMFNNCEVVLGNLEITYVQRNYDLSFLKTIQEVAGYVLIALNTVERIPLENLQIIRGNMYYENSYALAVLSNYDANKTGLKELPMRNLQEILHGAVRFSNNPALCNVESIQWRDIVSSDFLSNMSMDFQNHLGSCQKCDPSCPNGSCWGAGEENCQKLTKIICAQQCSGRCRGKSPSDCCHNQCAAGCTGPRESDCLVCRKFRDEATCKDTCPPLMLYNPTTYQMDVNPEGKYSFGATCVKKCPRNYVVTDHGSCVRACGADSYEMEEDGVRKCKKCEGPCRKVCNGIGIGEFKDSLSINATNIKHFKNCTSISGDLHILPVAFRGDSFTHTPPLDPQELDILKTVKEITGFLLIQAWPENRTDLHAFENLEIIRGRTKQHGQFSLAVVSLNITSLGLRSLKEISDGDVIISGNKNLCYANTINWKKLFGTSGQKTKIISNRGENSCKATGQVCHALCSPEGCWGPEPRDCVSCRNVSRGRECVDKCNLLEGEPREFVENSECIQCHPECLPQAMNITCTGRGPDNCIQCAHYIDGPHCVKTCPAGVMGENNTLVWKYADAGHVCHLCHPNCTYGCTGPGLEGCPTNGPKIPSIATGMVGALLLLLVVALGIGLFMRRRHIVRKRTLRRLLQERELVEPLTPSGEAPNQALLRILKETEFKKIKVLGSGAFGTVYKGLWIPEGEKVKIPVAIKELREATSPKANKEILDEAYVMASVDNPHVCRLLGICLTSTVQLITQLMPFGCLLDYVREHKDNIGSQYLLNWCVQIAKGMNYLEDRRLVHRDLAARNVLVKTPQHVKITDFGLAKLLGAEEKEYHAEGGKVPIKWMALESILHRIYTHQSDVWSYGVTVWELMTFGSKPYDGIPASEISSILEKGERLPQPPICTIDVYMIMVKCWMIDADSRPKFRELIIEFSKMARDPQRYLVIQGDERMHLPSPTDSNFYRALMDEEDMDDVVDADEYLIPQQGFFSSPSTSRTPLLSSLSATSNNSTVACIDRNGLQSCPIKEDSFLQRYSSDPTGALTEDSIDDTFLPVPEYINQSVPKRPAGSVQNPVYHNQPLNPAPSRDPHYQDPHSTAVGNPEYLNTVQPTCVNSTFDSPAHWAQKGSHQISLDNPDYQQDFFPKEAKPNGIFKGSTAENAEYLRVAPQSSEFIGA

[12] = target: Leukocyte tyrosine kinase receptor (Homo sapiens, UniProt P29376); assay: Selectivity interaction (KinomeScan (DiscoverX)) EUB0001079a LTK; settings: at 1 µM
[13] = target: T4, Dual specificity mitogen-activated protein kinase kinase 6 (Homo sapiens) (UniProt P52564); assay: Selectivity interaction (KinomeScan (DiscoverX)) EUB0000666a MAP2K6; settings: at 10 µM
T4 sequence (whole entry): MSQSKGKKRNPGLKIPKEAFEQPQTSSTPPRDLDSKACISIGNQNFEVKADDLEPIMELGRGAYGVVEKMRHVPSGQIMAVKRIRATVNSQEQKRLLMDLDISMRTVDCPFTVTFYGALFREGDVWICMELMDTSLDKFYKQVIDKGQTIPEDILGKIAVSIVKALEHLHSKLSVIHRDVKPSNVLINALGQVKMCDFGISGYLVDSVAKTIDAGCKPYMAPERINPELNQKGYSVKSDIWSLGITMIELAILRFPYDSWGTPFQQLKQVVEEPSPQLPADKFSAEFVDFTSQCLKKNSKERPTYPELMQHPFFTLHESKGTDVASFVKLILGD

Sequence of Serine/threonine-protein kinase B-raf (Homo sapiens) (P15056 whole entry): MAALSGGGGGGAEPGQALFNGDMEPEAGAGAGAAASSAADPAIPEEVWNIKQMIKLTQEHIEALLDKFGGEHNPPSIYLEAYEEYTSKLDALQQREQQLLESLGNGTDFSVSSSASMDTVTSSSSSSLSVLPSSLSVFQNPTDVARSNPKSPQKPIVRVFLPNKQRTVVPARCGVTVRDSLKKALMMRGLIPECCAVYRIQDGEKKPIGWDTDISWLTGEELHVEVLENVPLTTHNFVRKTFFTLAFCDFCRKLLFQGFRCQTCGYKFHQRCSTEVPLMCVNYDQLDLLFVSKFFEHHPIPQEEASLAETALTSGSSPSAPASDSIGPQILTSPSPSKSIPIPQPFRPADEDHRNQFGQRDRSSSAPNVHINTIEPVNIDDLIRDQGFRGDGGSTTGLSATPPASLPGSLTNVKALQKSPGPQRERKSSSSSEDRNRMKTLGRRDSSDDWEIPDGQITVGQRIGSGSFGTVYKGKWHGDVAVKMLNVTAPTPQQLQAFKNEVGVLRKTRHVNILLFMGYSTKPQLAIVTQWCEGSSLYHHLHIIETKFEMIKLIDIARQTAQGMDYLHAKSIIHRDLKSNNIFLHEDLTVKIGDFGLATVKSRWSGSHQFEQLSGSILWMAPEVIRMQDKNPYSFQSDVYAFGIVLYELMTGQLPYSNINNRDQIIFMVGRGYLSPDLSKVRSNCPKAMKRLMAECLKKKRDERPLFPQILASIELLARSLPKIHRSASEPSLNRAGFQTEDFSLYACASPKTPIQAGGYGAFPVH
Sequence of Serine/threonine-protein kinase B-raf (Homo sapiens), P15056 [V600E] (P15056 whole entry V600E): as the sequence (P15056 whole entry) above, with V600E counted along it

## COc1cc(Nc2nc(C)cc(-c3cnn4nc(OC)ccc34)n2)cc(C(F)(F)F)c1
[1]
  % of control: 100%
[2]
  % of control: 100%

## CC[C@@H]1[C@H](F)C(=O)N[C@@H]1COc1nccc2cc(C(N)=O)c(OC)cc12 [ZIMLOVISERTIB]
[3]
  % of inhibition: 5.09%
[4]
  % of inhibition: 4.1%
[5]
  % of inhibition: -12%

## Cn1cc(-n2cnc3c(NCc4nc5cc(Cl)c(Cl)cc5[nH]4)nc(N4CCOCC4)nc32)cn1
[6]
  % of inhibition: -44.9%
[7]
  % of inhibition: -1.07%

## Cc1cc(F)c(C(=O)Nc2cccc(-c3nncn3C(C)C)n2)cc1-n1cnc(C2CC2)c1
[8]
  % of control: 100%

## CCN(CC)CCCCNc1ncc2cc(-c3cc(OC)cc(OC)c3)c(NC(=O)NC(C)(C)C)nc2n1
[9]
  % of control: 100%

## COc1cc(N(C)c2ccnc3ccc(C(F)(F)F)cc23)cc(OC)c1OC
[10]
  % binding: 79%

## Nc1cnc(N2CCc3cc(S(=O)(=O)Nc4c(F)cc(Cl)cc4F)cc(N4CCCC4=O)c32)nc1 [TP-020n]
[11]
  % of control: 100%
[12]
  % of control: 100%

## O=C(NOC[C@H](O)CO)c1ccc(F)c(F)c1Nc1ccc(I)cc1F
[13]
  % of control: 100%
